Several values for one entry are separate records, joined by “and”; a condition that tells them apart may be missing. Equal entries are not always repeated. Peptide text beside a SMILES is read from it. * marks the point of attachment. Cbz = O=C(OCc1ccccc1)*
Tests used:
[1] = biological target: T1, R15B (Homo sapiens, UniProt Q5SWA1); experiment: R15B levels on immunoblots of HeLa cell lysates; type: cell-based; details: HeLa cells, Raphin1 10 μM; MG-132 10 μM; NSM-873 or CB-5083 1 μM
T1 construct: endogenous in cells; host or cells: HeLa
T1 sequence (Q5SWA1 1-713): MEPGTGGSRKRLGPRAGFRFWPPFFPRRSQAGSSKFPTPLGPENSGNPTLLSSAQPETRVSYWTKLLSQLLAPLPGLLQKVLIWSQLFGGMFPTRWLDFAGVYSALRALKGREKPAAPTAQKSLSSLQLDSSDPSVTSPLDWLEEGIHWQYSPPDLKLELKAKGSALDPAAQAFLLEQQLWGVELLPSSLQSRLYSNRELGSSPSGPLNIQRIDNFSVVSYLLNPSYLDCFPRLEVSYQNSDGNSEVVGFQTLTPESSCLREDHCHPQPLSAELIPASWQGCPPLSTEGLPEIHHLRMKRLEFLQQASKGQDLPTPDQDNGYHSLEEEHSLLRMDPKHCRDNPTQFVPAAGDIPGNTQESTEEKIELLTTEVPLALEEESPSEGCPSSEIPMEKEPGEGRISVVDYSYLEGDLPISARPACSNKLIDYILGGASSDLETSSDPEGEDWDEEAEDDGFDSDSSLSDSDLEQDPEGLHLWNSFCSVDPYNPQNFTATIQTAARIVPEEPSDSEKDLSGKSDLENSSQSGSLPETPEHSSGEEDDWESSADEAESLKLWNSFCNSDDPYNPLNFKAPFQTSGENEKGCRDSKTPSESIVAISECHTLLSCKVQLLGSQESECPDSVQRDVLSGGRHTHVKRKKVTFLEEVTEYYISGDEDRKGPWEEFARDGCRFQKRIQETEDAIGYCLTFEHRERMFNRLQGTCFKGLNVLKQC
Method: HeLa or MEF cells (90,000 cells/mL) were plated in 12-well plates (1 mL/well). The following day cells were treated as indicated; the medium was removed, fresh medium containing compound added and incubated at 37°C for the times indicated. The time course was performed in reverse order to facilitate collecting all samples at the same time. At the end of treatment cells were washed two times with ice-cold PBS and lysed in 150 μL Laemmli Buffer. […] Proteins were transferred to the nitrocellulose membrane using the iBlot 2 system (ThermoFisher Scientific). Membrane was blocked in 5% skimmed milk for 30 min and then probed with primary antibodies followed by incubation with the appropriate horseradish peroxidase-conjugated secondary antibodies (Promega). Proteins were visualized using ECL Prime (GE Healthcare) and imaged in the Chemi-Smart 5000 (Vilber-Lourmat, France) or ChemiDoc Touch (BioRad). Bands were quantified using ImageJ (NIH, USA).

[2] = biological target: T2, PP1c (Homo sapiens, UniProt P36873); experiment: PP1c catalytic activity assay (DiFMUP, EnzChek); details: his-PP1c 30 nM
T2 sequence (P36873 1-322): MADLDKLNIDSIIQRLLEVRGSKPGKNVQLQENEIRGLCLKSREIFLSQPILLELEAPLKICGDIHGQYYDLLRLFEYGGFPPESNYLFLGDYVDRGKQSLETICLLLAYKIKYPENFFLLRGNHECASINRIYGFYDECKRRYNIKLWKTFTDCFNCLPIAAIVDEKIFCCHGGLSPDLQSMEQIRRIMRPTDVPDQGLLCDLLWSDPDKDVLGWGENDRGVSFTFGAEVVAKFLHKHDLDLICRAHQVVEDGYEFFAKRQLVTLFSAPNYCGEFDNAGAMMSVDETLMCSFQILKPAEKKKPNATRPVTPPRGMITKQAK
Method: Residual activity of PP1c was measured using the EnzChek Phosphatase Assay Kit (ThermoFisher Scientific) according to the supplier’s instructions, with minor modifications.

[3] = biological target: T3, R15A-PP1c holophosphatase (R15A^325-636-PP1c) (Homo sapiens, UniProt O75807); experiment: Holophosphatase SPR, compounds binding to reconstituted R15A-PP1c; details: for Binding to R15A-PP1c (in words): SPR, up to 25 μM
T3 construct: cDNAs encoding amino acids 325-636 of R15A and 340-698 of R15B were cloned into pMAL-c5x; made in house; host or cells: R15A: E. coli BL21-Gold (DE3) pLysS; bio-PP1c: Sf9 insect cells (baculovirus)
T3 sequence (O75807 325-636, stated change not applied): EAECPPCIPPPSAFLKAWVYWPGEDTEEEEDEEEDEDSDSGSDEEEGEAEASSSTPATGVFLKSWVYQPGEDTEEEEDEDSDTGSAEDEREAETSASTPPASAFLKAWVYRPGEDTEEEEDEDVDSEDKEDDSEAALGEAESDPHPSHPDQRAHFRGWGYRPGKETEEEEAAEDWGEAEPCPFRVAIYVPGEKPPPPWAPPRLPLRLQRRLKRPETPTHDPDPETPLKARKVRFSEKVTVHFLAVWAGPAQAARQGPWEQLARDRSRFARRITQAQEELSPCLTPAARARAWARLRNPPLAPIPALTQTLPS
T3 sequence (P36873 1-322 partner): as the sequence (P36873 1-322) above
Method: (§1) Small molecules were stored as 50 mM stock solutions in 100% DMSO. […] If necessary the concentration range was adjusted to accurately determine the KD depending on the initial results. […] This was followed by 1 min stabilization period, to wash off any unspecific binding. […] After each dilution series, the surface was regenerated using 3 M NaCl for 90 s. […] In order to be able to correct for small variations in DMSO concentration between samples, eight solvent samples ranging from 0.06 to 8% DMSO were injected every 50th cycle. The flow cell temperature was 20°C.

[4] = biological target: T4, R15B-PP1c holophosphatase (R15B^340-698-PP1c) (Homo sapiens, UniProt Q5SWA1); experiment: Holophosphatase SPR, compounds binding to reconstituted R15B-PP1c; details: SPR, up to 25 μM
T4 construct: cDNAs encoding amino acids 325-636 of R15A and 340-698 of R15B were cloned into pMAL-c5x; made in house; host or cells: R15B: E. coli BL21-Gold (DE3) pLysS; bio-PP1c: Sf9 insect cells (baculovirus)
T4 sequence (P36873 1-322 partner limits assumed, one chain of several): as the sequence (P36873 1-322) above
Method: as §1

[5] = test system: eIF2α phosphorylation (HeLa cells); experiment: Protein analyses on immunoblots, HeLa cells; type: cell-based, human; details: unstressed, 10 μM, 0-10 h
Method: HeLa or MEF cells (90,000 cells/mL) were plated in 12-well plates (1 mL/well). The following day cells were treated as indicated; the medium was removed, fresh medium containing compound added and incubated at 37°C for the times indicated. The time course was performed in reverse order to facilitate collecting all samples at the same time. At the end of treatment cells were washed two times with ice-cold PBS and lysed in 150 μL Laemmli Buffer. Lysates were transferred to 1.5 mL eppendorf tubes, boiled at 95°C for 5 min, sonicated and resolved on Bolt SDS-PAGE 4%–12% Bis-Tris gels (ThermoFisher Scientific). Proteins were transferred to the nitrocellulose membrane using the iBlot 2 system (ThermoFisher Scientific). Membrane was blocked in 5% skimmed milk for 30 min and then probed with primary antibodies followed by incubation with the appropriate horseradish peroxidase-conjugated secondary antibodies (Promega). Proteins were visualized using ECL Prime (GE Healthcare) and imaged in the Chemi-Smart 5000 (Vilber-Lourmat, France) or ChemiDoc Touch (BioRad). Bands were quantified using ImageJ (NIH, USA). The following primary antibodies were used: e-IF2α-P (ThermoFisher Scientific (#44-728G), 1:1,000), e-IF2α (Abcam (#ab5369), 1:1,000), tubulin (Sigma-Aldrich (#T5168), 1:4,000), BiP (BD Biosciences PharMingen (#610978), 1:1,000), ATF4 (Santa Cruz Biotechnology (#sc-200), 1:500), Ppp1r15a (Proteintech (#10449-1-AP), 1:1,000), Ppp1r15b (Proteintech (#14634-1-AP), 1:1,000) and CHOP (ABR Affinity BioReagents (#MA1-250), 1:1,000).

[6] = test system: HeLa cells; experiment: Assessment of translation rates (35S-methionine), HeLa cells; type: cell-based, human; details: 10 μM; for Label (%), newly synthesized proteins (35S-methionine): HeLa, 0 h = 100
Method: HeLa or MEF cells (90,000 cells/mL) were plated in 12-well plates (1 mL/well). The following day cells were treated as indicated; the medium was removed, fresh medium containing compound added and incubated at 37°C for the times indicated. The time course was performed in reverse order to facilitate labeling all samples at the same time. After the treatment the cells were labeled with 100 μCi/mL ^35S-methionine (Hartmann Analytic) for 10 min at 37°C (300 μL fresh medium containing 3 μL ^35S-methionine was added to each well). Note that cells were not starved in methionine-free media before labeling with ^35S-methionine for monitoring protein synthesis. The labeled cells were then washed twice with ice-cold PBS and lysed in 120 μL Laemmli Buffer. Lysates were transferred to 1.5 mL eppendorf tubes, boiled at 95°C for 5 min, sonicated and resolved on Bolt SDS-PAGE 4%–12% Bis-Tris gels (ThermoFisher Scientific). Gels were then stained with InstantBlue (Expedeon) and after the gels had been imaged they were transferred to a 20% ethanol, 7% acetic acid, 4% glycerol solution for 10 min. This was to prevent the gels from cracking while drying. The gels were transferred to filter paper and dried using a gel dryer. The gels were then exposed to a Storage Phosphor Screen (GE Healthcare) and analyzed by phosphorimaging using a Typhoon Imager Scanner (GE Healthcare).

[7] = biological target: T5, R15B (Homo sapiens, UniProt Q5SWA1); experiment: Limited trypsin digestion of R15B; details: R15 3 μM, compound 100 μM, trypsin 5 nM, 5 min, 22°C
T5 construct: cDNAs encoding amino acids 325-636 of R15A and 340-698 of R15B were cloned into pMAL-c5x; made in house; host or cells: E. coli BL21-Gold (DE3) pLysS
Method: (§2) Reactions were initiated by addition of 5 nM of trypsin from bovine pancreas (Sigma-Aldrich), made up in PBS, and allowed to proceed for 5 min at 22°C, with shaking at 350 rpm. […] Proteins were visualized by staining with InstantBlue Protein Stain (Expedeon).

[8] = biological target: R15A (Homo sapiens, UniProt O75807); experiment: Limited trypsin digestion of R15A; set-up: cDNAs encoding amino acids 325-636 of R15A and 340-698 of R15B were cloned into pMAL-c5x; made in house; host or cells: E. coli BL21-Gold (DE3) pLysS; details: R15 3 μM, compound 100 μM, trypsin 5 nM, 5 min, 22°C
Sequence of R15A (O75807 325-636, stated change not applied): as the sequence (O75807 325-636, stated change not applied) above
Method: as §2

[9] = biological target: T2, PP1c; experiment: SPR, compounds binding to PP1c alone immobilized on streptavidin chip; set-up: cDNA encoding for human PP1cγ (aa 1-322) was cloned into two baculovirus transfer vectors; made in house; host or cells: Sf9 insect cells (baculovirus); details: PP1c immobilized on SA chip
Method: as §1

[10] = test system: liver; experiment: Oil Red O staining of liver (steatosis); type: in vivo, mouse; details: wild-type mice, single dose 40 mg/kg; Raphin1 also 2 mg/kg for 10 weeks
Method: Treatment- and test-naive C57BL/6J males and females were used. Mice received a single dose of Raphin1 or cycloheximide (CHX, Sigma-Aldrich) at 40 mg/kg at 3 months of age or were treated chronically with Raphin1 at 2 mg/kg from 4 weeks of age for 10 weeks before the analysis. Mice were culled by cervical dislocation, liver was extracted, fresh-frozen in the O.C.T. compound (VWR International) and kept at −80°C until use. Oil Red O staining was performed on 10 μm thick frozen cryosections (Leica CM1850). Sections were washed in 60% propanol and stained for 20 min at room temperature with filtered 0.33% Oil Red O solution (VWR International). After rinsing with distilled water sections were counterstained with hematoxylin (VWR, diluted 1:15) for 1 min. Images were acquired with a 40X objective using SCN400F scanner (Leica).

## Cc1cc2c(C(N)=O)cccc2n1-c1nc2c(c(NCc3ccccc3)n1)COCC2 [CB-5083]
[1]
  Effect of co-treatment on the Raphin1-induced decrease in R15B: essentially abrogated

## COC[C@@H]([C@H](O)[C@H](O)C(=O)NCC[C@H](C)c1nc(/C=C/C[C@@H]2O[C@]3(C[C@@H](O)[C@@H]2C)O[C@H]([C@H](C[C@H](O)[C@H](C)[C@H](O)[C@H](C)/C=C(C)/C(C)=C/C=C/C(C)=C\C#N)OC)[C@H](OP(=O)(O)O)C3(C)C)co1)N(C)C [Calyculin A]
[2]
  Inhibition of PP1c (dephosphorylation of difluoro-4-methylumbelliferyl phosphate): inhibited

## N=C(N)N/N=C/c1c(Cl)cccc1Cl [GBZ, Guanabenz]
[3]
  Binding to R15A-PP1c (in words): strongly bound
[3]; holophosphatase reconstituted on SA chip, 20°C, mean ± SD, read-out: KD, steady-state affinity for R15A-PP1c
  Kd: 122 nM and < 10000 nM
[4]
  Binding to R15B-PP1c (in words): did not bind or only weakly bound
[5]
  eIF2α phosphorylation: no measurable effects
[6]; HeLa cells, unstressed
  Protein synthesis (in words): no measurable effects
[6]; 1 h
  Label (%), newly synthesized proteins (35S-methionine): 94%
[6]; 2 h
  Label (%), newly synthesized proteins (35S-methionine): 92%
[6]; 5 h
  Label (%), newly synthesized proteins (35S-methionine): 103%
[6]; 7.5 h
  Label (%), newly synthesized proteins (35S-methionine): 96%
[6]; 10 h
  Label (%), newly synthesized proteins (35S-methionine): 97%
[7]
  Protease sensitivity of R15B (limited proteolysis, conformational change): neither GBZ nor Sephin1 affected
[2]
  Inhibition of PP1c (dephosphorylation of difluoro-4-methylumbelliferyl phosphate): did not inhibit
[8]
  Protease sensitivity of R15A (limited proteolysis, conformational change): increased resistance to limited-proteolysis
[9]
  Binding to PP1c alone (in words): did not measurably bind

## CC(C)C[C@@H](C=O)NC(=O)[C@H](CC(C)C)NC(=O)[C@H](CC(C)C)NC(=O)OCc1ccccc1 [MG-132] (Cbz-Leu-Leu-Leu-aldehyde)
[1]
  Effect of co-treatment on the Raphin1-induced decrease in R15B: prevented

## Cc1cc(OCc2nnc(SC3CCCC3)n2-c2cccnc2)ccc1-c1ccc(S(C)(=O)=O)cc1 [NSM-873]
[1]
  Effect of co-treatment on the Raphin1-induced decrease in R15B: essentially abrogated

## N=C(N)N/N=C/c1ncccc1Cl [compound C3]
[3]
  Binding to R15A-PP1c (in words): no detectable binding
[4]
  Binding to R15B-PP1c (in words): no detectable binding
[9]
  Binding to PP1c alone (in words): no detectable binding

## C[C@@H]1C[C@@H]([C@H](O)CC2CC(=O)NC(=O)C2)C(=O)[C@@H](C)C1 [cycloheximide, Cycloheximide]
[10]
  Liver steatosis (Oil Red O): caused liver steatosis

— paper PMC6108835, “Target-Based Discovery of an Inhibitor of the Regulatory Phosphatase PPP1R15B” (Cell, 2018)
